Results from US9315546B2, “Growth hormone secretatogue receptor antagonists and uses thereof” (The Administrators of the Tulane Educational Fund, priority 2010, dated 2016).
Where a SMILES comes first, the peptide text is derived from it. [ ]: non-standard residue; d: D form. The star is where a group is joined. Octanoyl = CCCCCCCC(=O)*; Dap = NC[C@H](N)C(=O)O

Legend:
GOAT = molecular target: T1, GOAT (Homo sapiens, UniProt Q96T53); assay: Acyl Transferase activity of GOAT in vitro; type: biochemical
T1 sequence (Q96T53 1-435): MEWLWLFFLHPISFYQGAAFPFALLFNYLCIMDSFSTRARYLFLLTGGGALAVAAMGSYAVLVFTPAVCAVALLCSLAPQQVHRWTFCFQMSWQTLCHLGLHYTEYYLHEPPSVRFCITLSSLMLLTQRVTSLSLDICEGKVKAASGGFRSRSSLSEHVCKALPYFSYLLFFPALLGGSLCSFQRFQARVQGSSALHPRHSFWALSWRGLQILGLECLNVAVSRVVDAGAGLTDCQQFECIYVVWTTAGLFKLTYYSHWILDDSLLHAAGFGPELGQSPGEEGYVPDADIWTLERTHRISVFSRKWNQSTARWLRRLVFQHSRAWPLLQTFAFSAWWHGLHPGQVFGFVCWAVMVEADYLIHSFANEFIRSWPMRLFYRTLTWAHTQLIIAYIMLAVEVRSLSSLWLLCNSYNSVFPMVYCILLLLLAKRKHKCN

[1] = molecular target: T2, hypothalamic ghrelin receptor (Rattus norvegicus, UniProt O08725); assay: Spontaneous and ghrelin-stimulated GH secretion after icv ghrelin analogs in adult male rats; type: in vivo; parameters: from tissue; host or cells: whole animal (adult male rats); conditions: for spontaneous growth hormone secretion / plasma GH levels: ghrelin analog 10 μg icv, 6-h sampling
T2 sequence (O08725 whole entry): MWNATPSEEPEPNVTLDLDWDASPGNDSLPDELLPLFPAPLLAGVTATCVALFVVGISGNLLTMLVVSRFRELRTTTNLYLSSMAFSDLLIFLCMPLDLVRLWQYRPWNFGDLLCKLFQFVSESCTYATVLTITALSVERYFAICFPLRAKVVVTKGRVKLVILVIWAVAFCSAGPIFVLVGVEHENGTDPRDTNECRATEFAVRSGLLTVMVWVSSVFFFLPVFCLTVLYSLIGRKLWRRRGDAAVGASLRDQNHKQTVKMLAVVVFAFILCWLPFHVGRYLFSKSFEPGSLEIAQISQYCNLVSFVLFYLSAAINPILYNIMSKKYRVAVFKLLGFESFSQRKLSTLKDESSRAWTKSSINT
Procedure: (§1) In vivo effects were measured on spontaneous and ghrelin-stimulated GH secrtion over a 6-h sampling period, and food intake monitored hourly over a 5-h period and body weight change over 24 h.

[2] = molecular target: T2, hypothalamic ghrelin receptor; assay: Food intake and body weight change after icv ghrelin analogs in adult male rats; type: in vivo; parameters: from tissue; host or cells: whole animal (adult male rats); conditions: ghrelin analog 10 μg icv; for body weight gain: change over 24 h; for (cumulative) food intake: monitored hourly over 5 h
Procedure: as §1

[3] = listed as Gly-Met-Ala-Gly-Ser-(Dap-Oct)-Phe-Leu-Ser-Pro-Glu-His-NH2
[4] = listed as GMA{Dap^3Oct}ghrelinNH2 1-9

CCCCCCCC(=O)NC[C@H](NC(=O)[C@H](CO)NC(=O)CNC(=O)[C@H](C)NC(=O)[C@H](CCSC)NC(=O)CN)C(=O)N[C@@H](Cc1ccccc1)C(=O)N[C@@H](CC(C)C)C(=O)N[C@@H](CO)C(=O)N1CCC[C@H]1C(=O)N[C@@H](CCC(=O)O)C(=O)N[C@@H](Cc1c[nH]cn1)C(N)=O [#3, Gly-Met-Ala-Gly-Ser-(Dap-Oct)-Phe-Leu-Ser-Pro-Glu-His-NH2] (H-GMAGS[Dap](Octanoyl)FLSPEH-NH2; N-terminus assumed)
inhibition of the Acyl Transferase activity of GOAT (GOAT): ineffective
decrease in mean plasma GH levels compared with controls ([1]; central administration): 3-to-4 fold
spontaneous growth hormone secretion / plasma GH levels [1]: inhibited growth hormone secretion
spontaneous growth hormone secretion / plasma GH levels ([1]; listed as GMA duodecapeptide ghrelin analog): inhibitory activity
spontaneous growth hormone secretion / plasma GH levels [1, 3]: inhibited
stimulatory action of ghrelin on GH release after pretreatment ([1]; pretreatment with analog): blocked
body weight gain [2, 4]: inhibits
body weight gain ([2]; listed as duodecapeptide): effective
(cumulative) food intake [2]: inhibited food intake
(cumulative) food intake [2, 4]: inhibits
(cumulative) food intake [2, 3]: reduced
(cumulative) food intake ([2]; listed as duodecapeptide): effective
